Patent US12624013B2, “Purification of 2,5-furandicarboxylic acid, dimethyl ester and other esterified products” (Archer Daniels Midland Company, priority 2020, dated 2026)

Tests used:
Type in all cases: physicochemical
[1] = Solubility of FDME in various solvents (sonicated 15 minutes at 35° C.); conditions: for Solubility remarks / FDME solubility limits: 35° C.
Method: An impure solid FDME sample, obtained from the esterification of FDCA with methanol, was determined to have 82.6 wt-% FDME (dimethyl ester), in addition to 10.4 wt-% of the monomethyl ester, FDMME, resulting from incomplete esterification. The sample also contained 0.35 wt-% of the FDCA starting compound and 0.58 wt-% of the aldehyde contaminant, FFME. In separate solubility studies with different solvents, various amounts of this sample were charged to a scintillation vial, and in each case 10 ml of solvent was added.

[2] = Storage stability of purified FDME crystals in ambient air; conditions: 3.5 years
Method: A 200 gram sample of a dried, impure mixture (crude composition comprising FDME) obtained from the esterification of FDCA with methanol to FDME was added to a 500 ml Erlenmeyer flask equipped with a PTFE magnetic stir bar. This solid composition was determined by UPLC-PDA to be 80 wt-% FDME, 18 wt-% FDMME, and 2 wt-% FDCA. Approximately 100 ml of methylene chloride was added to the flask, followed by 100 ml of 5 wt-% sodium bicarbonate. The biphasic solution was vigorously stirred for 30 minutes and transferred to a 1 liter separatory flask, which was used to remove the bottom organic phase. The top aqueous phase was extracted 2 times with additional extraction quantities, 30 ml each, of methylene chloride. These additional extraction quantities were combined with the organic phase, and the combined liquids were transferred to a 500 ml Wheaton bottle and placed in the freezer overnight. […] The retained crystals were dried with a stream of argon for 1 hour, determined to have a weight of 58.7 grams, and then stored in a 250 ml Wheaton bottle. A purity analysis of the crystals of the purified composition was carried out by quantitative ^1H NMR, indicating these to be 99.98 wt-% pure. The crystals were stored in ambient air and in a bottle on a tabletop.

[3] = Room temperature solubility of FDME in methanol; conditions: content of mother liquor
Method: The combination of filtration with diatomaceous earth and crystallization was investigated for its effectiveness in purifying a crude composition of FDME, having weight percentages of individual compounds as described in Example 1. A 105 gram sample of this crude composition was ground and dissolved in 700 ml of methanol to provide a 15 wt-% stock solution of the crude composition, which was maintained at 55° C. in a water bath with shaking. A 300 gram portion of this stock solution was removed and diluted to 2 wt-% dissolved solids, or approximately the room temperature solubility, and filtered on a 2″ diatomaceous earth (DE) filter using a Buchner funnel. Following this DE filtration, the solution was concentrated back to 20 wt-% in a crystallizer using a vacuum pump to evaporate the methanol solvent. […] Stirring at 100 rpm was maintained during the cooling, and the particle size distribution was determined in real time. […] It was determined that a 2-hour residence time at 35° C. and subsequent cooling to 30° C. leads to significant nucleation. […]
The solids from crystallization were emptied onto a Buchner funnel filter, and the crystals were sprayed with room temperature methanol. […] Following this single stage of crystallization, 67% of the FDME from the crude composition was recovered in the purified composition, which was determined to be 99.05 wt-% FDME and 0.86 wt-% FDMME. […]

[4] = CIE 1976 (L*a*b*) colorimetry of stored purified FDME composition; conditions: after storage over 3 years in ambient air
Method: In this regard, the color of the purified FDME composition was evaluated quantitatively by determining its chromaticity coordinates in the L*a*b* color space. This refers to a particular color space of different color systems of the CIE, or Commission Internationale de l'Echairage (International Commission of Illumination), which color systems were developed as a way to standardize color, or express color values numerically, and thereby remove the subjectivity of the human observer. The CIE 1976 (L*a*b*) color space is based on the opponent-colors theory of color vision, according to which two colors cannot be both green and red at the same time, nor blue and yellow at the same time. Therefore, single values can be used to describe the red/green and the yellow/blue attributes of a sample. In this regard, when a color is expressed using the L a*b* color space, the respective coordinates of L*, a*, and b* denote lightness, the red/green value, and the yellow/blue value, with these coordinates ranging from −100 to +100. For purposes of characterizing compositions described herein with respect to yellow color, the value of b* is particularly relevant. The assessment of the L*, a*, and b* coordinates of the purified FDME composition was performed using a commercially available colorimeter from Konica Minolta, model CM-5.
(§1) To prepare a first sample, Sample #1, of the purified FDME composition for color analysis, a 0.597 gram portion of the composition was dissolved in 9.414 grams of a solvent mixture of 1:1 (v/v) acetonitrile/isopropanol, such that Sample #1 contained 5.96 wt-% of the dissolved composition. A second sample, Sample #2 was prepared by dissolving a 0.592 gram portion of the composition in 9.406 grams of this solvent, such that Sample #2 contained 5.92 wt-% of the dissolved composition. For each sample having a target concentration of 6 wt-% dissolved solids, two CIE 1976 (L*a*b*) colorimetry measurements and two APHA measurements were performed.

[5] = APHA color (ASTM D1209) of stored purified FDME composition; conditions: Average of Samples #1 and #2, two measurements each; after storage over 3 years in ambient air
Method: Another color measurement, which is referred to as APHA color, was also determined for the purified FDME composition according to ASTM D1209. APHA color is also known as the Hazen scale, as well as the platinum cobalt (Pt/Co) scale. APHA is a color standard named for the American Public Health Association that was originally intended to describe the color of wastewater, but its usage has expanded to include other applications. APHA color is a color scale sometimes referred to as a “yellowness index” that is used to assess the quality of liquids that are clear to yellowish in color.
as §1

[6] = Average of Samples #1 and #2, two measurements each
[7] = single measurements, about 6 wt-% in 1:1 (v/v) acetonitrile/isopropanol

COC(=O)c1ccc(C(=O)OC)o1 [FDME, 2,5-furandicarboxylic acid, dimethyl ester]
Solubility of crude compositions, summary in words ([1]; in methylene chloride, acetonitrile, N,N′-dimethylformamide, 1,4-dioxane, 1,1,2,2-tetrachloroethane, ethyl acetate, tetrahydrofuran, pyridine, acetone, dimethyl sulfoxide): favorable solubility | Solubility remarks ([1]; solvent 1,1,2,2-tetrachloroethane): Very soluble | FDME solubility limits ([1]; solvent 1,1,2,2-tetrachloroethane, impure FDME sample (82.6 wt-% FDME)): 23-27 wt-% | FDME solubility limits ([1]; solvent 1,3-Propanediol): <8 wt-% | Solubility remarks ([1]; solvent 1,3-Propanediol): Insoluble | FDME solubility limits ([1]; solvent 1,4-Dioxane): 23-28 wt-% | Solubility remarks ([1]; solvent 1,4-Dioxane): Very soluble | FDME solubility limits ([1]; solvent Acetone): 12-20 wt-% | Solubility remarks ([1]; solvent Acetone): Soluble | FDME solubility limits ([1]; solvent Acetonitrile): >39 wt-% | Solubility remarks ([1]; solvent Acetonitrile): Exceptionally soluble | FDME solubility limits ([1]; solvent Dimethyl sulfoxide): 9-13 wt-% | Solubility remarks ([1]; solvent Dimethyl sulfoxide): Soluble | FDME solubility limits ([1]; solvent Ethanol): <10 wt-% | Solubility remarks ([1]; solvent Ethanol): Insoluble | FDME solubility limits ([1]; solvent Ethyl Acetate): 18-25 wt-% | Solubility remarks ([1]; solvent Ethyl Acetate): Very soluble | FDME solubility limits ([1]; solvent Ethylene Glycol): <8 wt-% | Solubility remarks ([1]; solvent Ethylene Glycol): Insoluble | FDME solubility limits ([1]; solvent Methanol): <11 wt-% | Solubility remarks ([1]; solvent Methanol): Insoluble | FDME solubility limits ([1]; solvent Methyl-t-butyl ether): <10 wt-% | Solubility remarks ([1]; solvent Methyl-t-butyl ether): Insoluble | FDME solubility limits ([1]; solvent Methylene Chloride): 27-31 wt-% | Solubility remarks ([1]; solvent Methylene Chloride): Very soluble | FDME solubility limits ([1]; solvent N,N′-dimethylformamide): 30-35 wt-% | Solubility remarks ([1]; solvent N,N′-dimethylformamide): Very soluble | FDME solubility limits ([1]; solvent Pyridine): 17-23 wt-% | Solubility remarks ([1]; solvent Pyridine): Very soluble | FDME solubility limits ([1]; solvent THF): 17-23 wt-% | Solubility remarks ([1]; solvent THF): Very soluble | FDME solubility limits ([1]; solvent Toluene): <10 wt-% | Solubility remarks ([1]; solvent Toluene): Insoluble | Purity on storage (stability) ([2]; crystals initially 99.98 wt-% pure, stored in ambient air in a bottle on a tabletop): maintained | Appearance on storage (color stability, flow) ([2]; stored in ambient air): very little development of off-white color | Room temperature solubility in methanol [3]: approximately 2 wt-% | L* [4, 6]: 99.43 | a* [4, 6]: −0.01 | b* [4, 6]: 0.39 | L* [4, 7]: > 99 | a* [4, 7]: < 0.5 | b* [4, 7]: < 0.5 | Hazen/APHA [5]: 12
